Experimental data taken from patent publication US10093627B2, “Tetrahydroquinoline derivatives and their use as Epac inhibitors” (Institut National de la Sante et de la Recherche Medicale …, priority 2012, dated 2018).
pIC50: −log10 of the molar value.

Legend:
[1] = tested on: Iso-induced NFAT-Luc transcriptional activation; assay: NFAT-Luc transcriptional activation (Firefly luciferase assay) in neonatal cardiomyocytes; type: cell-based, rat; conditions: CE3F4 20 μM, 30 min pretreatment; Iso 10 μM, 8 h; FIG. 4B
Procedure: ANF and NFAT promoters were fused to the Firefly luciferase gene (ANF-Luc) (NFAT-Luc) to detect ANF and NFAT by Firefly Luciferase assay (see Materiel and Methods).
Rat neonatal cardiomyocytes were cotransfected with ANF-Luc and Epac1 or empty vector pcDNA3 as control. One day after transfection, cells were pretreated or not with CE3F4 (20 μM) for 30 min and stimulated or not with Iso (10 μM) for 8 h. Cells were then assayed for Luciferase activity. B) Iso-induced NFAT-Luc Transcriptional Activation is Blocked by CE3F4: Neonatal cardiomyocytes were transfected with NFAT-Luc. One day later cells were pretreated or not with CE3F4 (20 μM) for 30 min and stimulated or not with Iso (10 μM) for 8 h. The day after, cells were assayed for Luciferase activity.
Results were normalized to control for each experiment, and were expressed as means±S.E.M of at 4 (FIG. 4A) or 5 (FIG. 4B) independent experiments performed in triplicates.
The rat ANF promoter fused to the Firefly luciferase reporter gene (ANF-Luc) by Dr K. Knowlton, Epac and Rap1 plasmid construct (Epac1^WT) by Drs J. L. Bos and J. de Gunzburg, respectively. The Firefly luciferase reporter plasmid driven by four NFAT consensus binding sites (NFAT-Luc) was purchased from Stratagene. […]
Cells were lysed, and luminescence was detected using the Luciferase Assay System (Promega) according to the manufacturer's instructions with Tecan Infinite.

Epac2(B) = biological target: T1, Epac2(B) (Homo sapiens, UniProt Q8WZA2); assay: In vitro GEF activity (initial velocity of GDP exchange on Rap1A) of Epac2(B); type: biochemical
T1 construct: Human Epac2(B) (amino acids 283-1011) lacks the first 283 amino acids of Epac2; made in house; host or cells: Escherichia coli Rosetta 2(DE3)
T1 sequence (Q8WZA2 283-1011): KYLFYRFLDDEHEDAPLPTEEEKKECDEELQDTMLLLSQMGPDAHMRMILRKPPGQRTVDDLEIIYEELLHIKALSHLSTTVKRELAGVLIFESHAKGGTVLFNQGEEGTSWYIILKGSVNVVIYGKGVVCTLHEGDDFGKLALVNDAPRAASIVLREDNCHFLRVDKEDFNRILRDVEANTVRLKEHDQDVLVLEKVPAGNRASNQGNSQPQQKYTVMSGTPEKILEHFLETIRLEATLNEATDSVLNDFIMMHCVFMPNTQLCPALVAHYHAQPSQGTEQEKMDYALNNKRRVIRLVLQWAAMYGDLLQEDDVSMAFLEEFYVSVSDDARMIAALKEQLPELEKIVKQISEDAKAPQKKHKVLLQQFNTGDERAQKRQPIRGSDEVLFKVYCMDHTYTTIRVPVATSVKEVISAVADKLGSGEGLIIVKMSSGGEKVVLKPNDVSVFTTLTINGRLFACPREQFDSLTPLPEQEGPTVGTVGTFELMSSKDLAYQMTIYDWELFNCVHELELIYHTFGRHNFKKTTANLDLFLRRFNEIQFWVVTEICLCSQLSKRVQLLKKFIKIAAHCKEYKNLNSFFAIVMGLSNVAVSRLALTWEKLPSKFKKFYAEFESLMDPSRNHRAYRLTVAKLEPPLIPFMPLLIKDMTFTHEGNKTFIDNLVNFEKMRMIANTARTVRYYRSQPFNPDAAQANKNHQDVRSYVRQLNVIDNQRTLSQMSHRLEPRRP
From the text: Human Epac2(AB) (amino acids 43-1011) carries both the CNB-A and the CNB-B domains. Human Epac2(B) (amino acids 283-1011) lacks the first 283 amino acids of Epac2. It is therefore deleted of its CNB-A and DEP domains, but retains the CNB-B domain and the full catalytic region. Epac2(AB) was obtained by HindIII/NotI restriction and Epac2(B) was obtained by Ssp1/Not1 restriction of a human Epac2A cDNA (a gift from Ann M Graybiel, Department of Brain and Cognitive Sciences, MIT, Cambridge). Both cDNA fragments were inserted into pET41a (Novagen), expressed in Escherichia coli Rosetta 2(DE3) (Novagen), and the GST-tagged fusion proteins were purified by nickel-nitrilotriacetic acid beads (Qiagen), as described in D. Courilleau, et al., Identification of a tetrahydroquinoline analog as a pharmacological inhibitor of the cAMP-binding protein Epac, J. Biol. Chem. 287 (2012) 44192-44202).
In vitro GDP exchange catalyzed by Epac was measured using purified recombinant Epac isoforms and Rap1A loaded with Bodipy-GDP, as described in D. Courilleau, et al (above mentioned). The GEF activity of Epac proteins was initiated by injection of the agonist. Stock solutions of CE3F4 and its analogs (12 mM in 100% DMSO) were kept at −20° C. and were diluted in assay buffer (0.67% final DMSO concentration) just before use for GDP exchange assays. The release of Bodipy-GDP was measured in real time as the decay of fluorescence. A single exponential was fit to the time-course data using the Graphpad Prism program. The initial velocity (Vi) of GDP exchange on Rap1 was calculated as described in D. Courilleau et al.).
Data are expressed as mean±S.D. Differences in quantitative variables were examined by unpaired one- or two-tailed Student's t test. EC50 and IC50 values were computed according to a four-parameters dose-response model and compared on the basis of the extra sum-of square F test, using Graphpad Prism. Two-tailed Wilcoxon matched-pair signed rank tests were performed using GraphPad Prism.

Effect on Iso-induced NFAT transcriptional activity [1]: prevented | Inhibitory effect on GEF activity of Epac2(B), compared with Epac2(AB) (Epac2(B); 50 μM racemic CE3F4, agonist 50 μM 007 or 300 μM cAMP, FIG. 6A): no significant difference | pIC50 (Epac2(B); Epac2(B) activated by 300 μM cAMP): 4.18 | Antagonism of cAMP-activated Epac2(B) GEF activity (Epac2(B); compound 30 μM, 300 μM cAMP, FIG. 6C): stronger antagonist
SMILES: CC1CCc2c(cc(Br)c(F)c2Br)N1C=O (racemic) [CE3F4]
